Data from patent US7700604B2, “Hydantoin derivatives as metalloproteinase inhibitors” (AstraZeneca AB, priority 2004, dated 2010).

Legend:
Type in all cases: biochemical
[1] = molecular target: T1, Recombinant human MMP14 catalytic domain (Homo sapiens, UniProt P50281); experiment: Isolated enzyme assay MMP14 (fluorogenic substrate); conditions: substrate Mca-Pro-Cha-Gly-Nva-His-Ala-Dpa-NH2 10 μM, 60 minutes at room temperature, pH 7.5, read-out: hMMP14 IC50
T1 construct: Recombinant human MMP14 catalytic domain; made in house
Method: Recombinant human MMP14 catalytic domain may be expressed and purified as described by Parkar A. A. et al, (2000), Protein Expression and Purification, 20, 152. The purified enzyme can be used to monitor inhibitors of activity as follows: MMP14 (10 ng/ml final concentration) is incubated for 60 minutes at room temperature with the synthetic substrate Mca-Pro-Cha-Gly-Nva-His-Ala-Dpa-NH2 (10 μM) in assay buffer (0.1M “Tris-HCl” (trade mark) buffer, pH 7.5 containing 0.1M NaCl, 20 mM CaCl2, 0.020 mM ZnCl and 0.05% (w/v) “Brij 35” (trade mark) detergent) in the presence (5 concentrations) or absence of inhibitors. Activity is determined by measuring the fluorescence at λex 320 nm and λem 405 nm. Percent inhibition is calculated as follows: % Inhibition is equal to the [Fluorescenceplus inhibitor−Fluorescencebackground] divided by the [Fluorescenceminus inhibitor−Fluorescencebackground].

[2] = molecular target: T2, Recombinant human MMP9 catalytic domain (Homo sapiens, UniProt P14780); experiment: Isolated enzyme assay MMP9 (fluorogenic substrate); conditions: substrate Mca-Pro-Cha-Gly-Nva-His-Ala-Dpa-NH2 5 μM, 30 minutes at RT, pH 7.3, read-out: hMMP9 IC50
T2 sequence (P14780 with tags, fused parts or gaps DEL216-390): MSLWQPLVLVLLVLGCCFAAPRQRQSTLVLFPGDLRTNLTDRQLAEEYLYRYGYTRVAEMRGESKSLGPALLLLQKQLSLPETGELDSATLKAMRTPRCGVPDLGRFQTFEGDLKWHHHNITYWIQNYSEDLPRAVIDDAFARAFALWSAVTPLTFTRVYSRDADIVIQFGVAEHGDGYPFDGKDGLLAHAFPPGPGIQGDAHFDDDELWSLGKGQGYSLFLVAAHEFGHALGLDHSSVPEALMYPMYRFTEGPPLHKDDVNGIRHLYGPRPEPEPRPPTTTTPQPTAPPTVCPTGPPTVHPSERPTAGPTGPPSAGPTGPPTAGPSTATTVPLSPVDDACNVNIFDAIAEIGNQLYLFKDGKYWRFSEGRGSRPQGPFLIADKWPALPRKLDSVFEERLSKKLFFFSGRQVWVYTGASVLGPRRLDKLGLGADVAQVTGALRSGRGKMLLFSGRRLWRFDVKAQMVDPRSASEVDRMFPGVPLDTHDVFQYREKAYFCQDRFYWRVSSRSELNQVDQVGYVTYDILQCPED
Method: Recombinant human MMP9 catalytic domain was expressed and then purified by Zn chelate column chromatography followed by hydroxamate affinity column chromatography. The enzyme can be used to monitor inhibitors of activity as follows: MMP9 (5 ng/ml final concentration) is incubated for 30 minutes at RT with the synthetic substrate Mca-Pro-Cha-Gly-Nva-His-Ala-Dpa-NH2 (5 μM) in assay buffer (0.1M “Tris-HCl” (trade mark) buffer, pH 7.3 containing 0.1M NaCl, 20 mM CaCl2, 0.020 mM ZnCl and 0.05% (w/v) “Brij 35” (trade mark) detergent) in the presence (10 concentrations) or absence of inhibitors. Activity is determined by measuring the fluorescence at λex 320 nm and λem 405 nm. Percent inhibition is calculated as follows: % Inhibition is equal to the [Fluorescenceplus inhibitor−Fluorescencebackgound] divided by the [Fluorescenceminus inhibitor−Fluorescencebackground]. […]

[3] = molecular target: T3, Recombinant human MMP12 catalytic domain (Homo sapiens, UniProt P39900); experiment: Isolated enzyme assay MMP12 (fluorogenic substrate); conditions: substrate Mca-Pro-Cha-Gly-Nva-His-Ala-Dpa-NH2 10 μM, 60 minutes at room temperature, pH 7.3, read-out: hMMP12 IC50
T3 construct: Recombinant human MMP12 catalytic domain; made in house
Method: Recombinant human MMP12 catalytic domain may be expressed and purified as described by Parkar A. A. et al, (2000), Protein Expression and Purification, 20, 152. The purified enzyme can be used to monitor inhibitors of activity as follows: MMP12 (50 ng/ml final concentration) is incubated for 60 minutes at room temperature with the synthetic substrate Mca-Pro-Cha-Gly-Nva-His-Ala-Dpa-NH2 (10 μM) in assay buffer (0.1M “Tris-HCl” (trade mark) buffer, pH 7.3 containing 0.1M NaCl, 20 mM CaCl2, 0.020 mM ZnCl and 0.05% (w/v) “Brij 35” (trade mark) detergent) in the presence (10 concentrations) or absence of inhibitors. Activity is determined by measuring the fluorescence at λex 320 nm and λem 405 nm. Percent inhibition is calculated as follows: % Inhibition is equal to the [Fluorescenceplus inhibitor−Fluorescencebackground] divided by the [Fluorescenceminus inhibitor−Fluorescencebackground]. MMP8

T3 sequence (P39900 106-263 limits assumed): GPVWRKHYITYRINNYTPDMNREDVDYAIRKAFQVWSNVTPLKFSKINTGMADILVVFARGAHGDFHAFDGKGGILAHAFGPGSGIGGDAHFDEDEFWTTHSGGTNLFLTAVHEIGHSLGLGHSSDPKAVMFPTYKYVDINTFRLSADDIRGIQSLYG

IC50 [1] [nM]	IC50 [2] [nM]	IC50 [3] [nM]	Compound
> 10000	29.3	10.4	C[C@]1(CS(=O)(=O)N2CCc3cc(-c4cnc(C(F)(F)F)nc4)ccc3C2)NC(=O)NC1=O [Example 1, (5)-5-Methyl-5-({[6-[2-(trifluoromethyl)pyrimidin-5-yl]-3,4-dihydroisoquinolin-2(1H)-yl]sulfonyl}methyl)imidazolidine-2,4-dione]
415	3.5	1.4	C[C@]1(CS(=O)(=O)N2CCc3cc(-c4ccc(Cl)cc4)ccc3C2)NC(=O)NC1=O [Example 2, (5S)-5-({[6-(4-Chlorophenyl)-3,4-dihydroisoquinolin-2(1H)-yl]sulfonyl}methyl)-5-methylimidazolidine-2,4-dione]
1990	8.3	7	C[C@]1(CS(=O)(=O)N2CCc3cc(-c4ccc(Cl)cc4)ncc3C2)NC(=O)NC1=O [Example 5, (5S)-5-({[6-(4-Chlorophenyl)-3,4-dihydro-2,7-naphthyridin-2(1H)-yl]sulfonyl}methyl)-5-methylimidazolidine-2,4-dione]
